Tested on: LNCaP-C4-2B and VCaP human CaP cells
Assay: Chemotaxtic migration assay (cell culture inserts)
Assay type: cell-based
Settings: osteoblast-secreted proteins evaluated in migration assays; FIG. 2
Protocol: Conditioned medium from human primary pre-osteoblast cells was prepared by plating 5×10^5 cells in 10 ml culture medium (10% FBS DMEM medium) to 100 mm tissue culture dishes. Following 24 hrs to allow for adherence, the medium was removed and the cells washed three times with 10 ml/dish PBS. Washed cells were then incubated 72 hrs in 10 ml/dish serum-free DMEM medium supplemented with 1% (v/v) ITS+(Becton Dickenson, Bedford. Mass.) Medium collected after 72 hrs was filtered through 0.2 μm filter and used directly in in vitro invasion and migration assays with human prostate cancer cells.
Chemotaxtic migration assays were performed as described with modifications (Jeffers et al., 1996). Briefly, cells were harvested with trypsin, washed once with serum-free medium, and resuspended in serum-free DMEM medium to a concentration of 5×10^4 viable cells/ml. 25,000 cells/0.5 ml were then added to 24-well cell culture inserts with a […] pore size (Becton Dickinson, Bedford, Mass.). The inserts were placed in wells containing 0.5 ml of serum-free DMEM, 72 hr serum-free conditioned medium from human primary osteoblasts and incubated for 48 hrs in 5% CO2-95% air at 37° C. […] The total number of invading cells/filter was quantified under 10× magnification. […]

Row | Substance | effect on CaP cell migration
1 | IL-6: osteoblast-secreted protein, interleukin 6 | stimulatory
2 | basic Fibroblast Growth Factor: osteoblast-secreted protein, basic fibroblast growth factor | stimulatory

Reference: patent publication US20060008858A1, “Osteoblast factor(s) that regulates human prostate cancer migration to and invasion of bone” (The Regents of the University of Michigan, priority 2004, published 2006)
